Reference: patent US20250268958A1, “COMMENSAL BACTERIA PROMOTE ENDOCRINE-RESISTANCE IN PROSTATE CANCER VIA ANDROGEN BIOSYNTHESIS” (FONDAZIONE PER L'ISTITUTO ONCOLOGICO DI RICERCA (IOR), priority 2021, published 2025)

Tests used:
Ruminococcaceae family [1] = assay: Gut microbiota of mCRPC patients stratified by ADT regimen (whole genome metagenome); type: in vivo, human; settings: Abiraterone vs Enzalutamide
Description: FIG. 16—Different ADT regimens alter gut microbiota composition. (A) Pie chart representing the number of CRPC patients receiving Enzalutamide, Abiraterone or other treatment (Apalutamide, Docetaxel, Cabazitaxel or no active treatment) at the moment of the rectal swab. […] (C) Patients treated with enzalutamide (n=14) and apalutamide (n=1) were stratified according to the circulating testosterone level (≤10 ng/dL or >10 ng/dL). Pie charts show, within each group, the fraction of patients having Ruminococcus DSM_10044 in their gut microbiota.
Collection of patient feces. Patients with hormone-sensitive (HSPC) and metastatic CRPC consented to the analysis of their rectal swabs. […]
Whole genome metagenome analysis of patient feces. […] DNA was analyzed by Qubit (Invitrogen, Thermo Fisher Scientific, Waltham, USA) and integrity was checked by agarose gel electrophoresis.
Illumina TruSeq DNA libraries were prepared using the TruSeq nano DNA Library preparation kit (Illumina, San Diego, USA) according to the manufacturer's instructions. […] The final libraries were quantified using a Quant-iT™ PicoGreen™ ds DNA Assay Kit (Thermo Fisher Scientific, Waltham, USA) and equimolarly pooled prior to sequencing. […] Quality of the reads in fastq format was checked with the software FastQC (version 0.11.8). […]

TRAMP-C1 cells = assay: TRAMP-C1 allograft tumor model, castrated (CTX) or sham-operated mice; settings: high dose of testosterone vs vehicle
Description: C57BL6/N mice were challenged s.c. with 2.5×10^6 TRAMP-C1 cells. When tumors became palpable, mice were either castrated (CTX) or sham-operated (sham). After surgery, mice were either administered normal drinking water or antibiotic cocktail (ABX: neomycin 1 g/L, ampicillin 1 g/L, vancomycin 0.5 g/L and metronidazole 2 mg/mouse every other day). (A) Tumor volume (Sham n=14, Sham ABX n=4, CTX n=20, CTX ABX n=10) and (B) survival curve. […] Statistical analysis was performed with: (A), (F), (G) two-way ANOVA and Sidak's multiple comparison test; (B), (H), (1) Mantel Cox test; (C), (E), (K) unpaired two-sided Student's t-test. NS, not significant; *P<0.05; **P<0.01; ***P<0.001; ****P<0.0001.
Mice. […] 4 weeks old male C57BL6/N and NOD/SCID mice were purchased from Charles River (Calco, Italy) and acclimatized for four weeks before experimentation.

Ruminococcaceae family [2] = assay: Gut microbiota composition in TRAMP-C1 mice under bipolar androgen therapy; type: in vivo, mouse; settings: high dose of testosterone vs vehicle
Description: FIG. 7—Pten^pc−/− and LNCaP castrated mice harbor a peculiar gut microbiota. […] (E) qPCR showing the abundance of R. gnavus and B. acidifaciens in feces of LNCaP mice that were either sham-operated (n=4), CTX (n=6), CTX+enzalutamide (n=6) at 85 days. TRAMP-C1 mouse models were treated with either vehicle or high dose of testosterone as per bipolar androgen therapy. (F) Tumor volume (vehicle n=5, high testosterone n=5). (G) Serum testosterone levels (vehicle n=5, high-testosterone n=5). (H) Heatmap representing differentially abundant bacteria (FDR<0.05) between mice injected with vehicle or high testosterone-dose (vehicle n=4, high-testosterone n=4). […]
Pten^pc−/− Murine 16S rDNA sequencing analysis and bacteria qPCR. […] DNA was extracted using a GNOME DNA isolation kit (MP) following the protocol described in (J. P. Furet et al., Comparative assessment of human and farm animal faecal microbiota using real-time quantitative PCR. FEMS Microbiol Ecol 68, 351-362 (2009)). […] In short, DNA concentration and quality were evaluated using NanoDrop 2000. […] PCR products were visualized on an agarose gel then quantified by qPCR using the KAPA Library Quantification Kit (KAPA Biosystems, KK4824). […] The pooled library was purified using the Agencourt AMPure XP kit (Beckman Coulter, A63880) and quantified with the same method prior to sequence using paired-end (read length=300 bases) on Illumina MiSeq. […]

SMILES: CNC(=O)c1ccc(N2C(=S)N(c3ccc(C#N)c(C(F)(F)F)c3)C(=O)C2(C)C)cc1F [Enzalutamide]
- expansion of Ruminococcaceae family in gut microbiota (Ruminococcaceae family [1]): presented an expansion of Ruminococcaceae family

SMILES: C[C@]12CC[C@H]3[C@@H](CCC4=CC(=O)CC[C@@]43C)[C@@H]1CC[C@@H]2O [bipolar androgen therapy, Testosterone]
- tumor volume (TRAMP-C1 cells): promoted tumor inhibition
- abundance of Ruminococcaceae family (Ruminococcaceae family [2]): decreased the abundance of Ruminococcaceae family
